Key:
[1] = test system: kaolin and carrageenin edema; experiment: antiexudative effect, average of kaolin and carrageenin edema tests; type: in vivo; conditions: Rattus norvegicus, po; arithmetically averaged value from ED35 kaolin edema and ED35 carrageenin edema
Source text: *arithmetically averaged value from ED35 kaolin edema and ED35

[2] = test system: kaolin edema of the hind paws of the rat; experiment: kaolin edema of the hind paw of the rat, anti-exudative effect, oral; type: in vivo; conditions: 5 h, male FW 49-rats, oral 30 minutes before edema, 35% reduction of swelling five hours after provocation, graphic extrapolation, read-out: kaolin edema ED35 per os
Method: (§1) The compounds were tested by standard test methods for their anti-exudativeeffects on the kaolin edema and carrageenin edema of the hind paws of the rat and for their acute toxicity by oral administration to rats.
The kaolin edema was induced according to the method of Hillebrecht [Arzneimitted-Forsch. 4, 607 (1954)] by subplantary injection of 0.05 ml of a 10% suspension of kaolin in a 0.85% sodium chloride solution. The measurement of the thickness of the paws was done by using the technique of Doepfner and Cerletti [Int. Arch. Allergy. Immunol. 12, 89 (1958)].
(§2) Male FW 49-rats of an average weight of 120-150 gm were orally treated with the test compounds 30 minutes before inducement of the edema with the aid of an esophageal tube. Five hours after the provocation of the edema the averaged values of the swelling caused in the paws of the rats treated with the compounds were compared with those values measured on blind-treated control animals. By graphic extrapolation the dose leading to a 35% reduction of the swelling (ED35) was calculated from the percent reduction values measured by administration of different doses.

[3] = test system: carrageenin edema of the hind paws of the rat; experiment: carrageenin edema of the hind paw of the rat, anti-exudative effect, oral; type: in vivo; conditions: 3 h, FW 49-rats, oral 60 minutes before edema, 35% reduction of swelling three hours after provocation, graphic extrapolation, read-out: carrageenin edema ED35 per os
Method: as §1, §2
The provocation of the carrageenin edema was effected according to the method of Winter et al [Proc. Soc. exp. Biol. Med. 111, 544 (1962)] by subplantary injection of 0.05 ml of a 1% solution of carrageenin in a 0.85% solution of sodium chloride. The test compounds were orally administered 60 minutes before the provocation of the edema.
For the calculation of the reductive effect on the edema the values measured three hours after the provocation of the edema were used. All the other details were the same as described above in the case of the kaolin edema.

in vivo = conditions: rat, po
Method: The therapeutic index, as a measure for the therapeutic usefulness, was calculated by forming the quotient of the LD50 -value and the ED35 -value derived from the tests for anti-exudative activity against the kaolin and carrageenin edema.

[4] = acute toxicity in the rat, oral; conditions: in vivo, male and female FW 49-rats (1:1), oral as trituration in tylose, 14 days, Litchfield and Wilcoxon, 95% confidence limits, read-out: acute toxicity in the rat LD50 per os
Method: as §1
After oral administration to male and female FW 49-rats (ratio 1:1) having an average body weight of 135 gm, the acute toxicity (LD50 ) was determined. The substances were administered orally as trituration in tylose.
The calculation of the LD50 -values was effected, as far as possible, according to the method of Litchfield and Wilcoxon, based on the percentage of animals which died within 14 days after administration of the different doses.

## CC(CC(=O)O)c1ccc(-c2ccccc2F)cc1 (racemic) [A, 3-(2'-fluoro-4-biphenylyl)-butyric acid]
[1]
  ED35: 14.8 mg/kg
[2]
  ED35: 19 mg/kg
[3]
  ED35: 10.5 mg/kg
In vivo
  selectivity ratio: 36.5
[4]
  LD50 at 336 h: 540 mg/kg

Reference: patent US3987197A, “3-(2'-Fluoro-4-biphenylyl)-butyric acid and salts thereof” (Boehringer Ingelheim GmbH, priority 1972, dated 1976)
